Experimental data: patent US10093699B2, “Peptides with antimicrobial, anticancer and/or wound-healing promoting activities, pharmaceutical compositions containing the same, and use of the peptides with antimicrobial, anticancer and/or wound-healing promoting activities” (priority 2015, dated 2018)
Where a SMILES comes first, the peptide text is derived from it. [ ]: non-standard residue; d: D form. 2Nal = N[C@@H](Cc1ccc2ccccc2c1)C(=O)O

How the values were obtained:
[1] = tested on: Gram-positive and Gram-negative bacterium; test: Antimicrobial activity under several salt concentrations (summary in words); assay type: cell-based
Experimental: Escherichia coli strain (ATCC 25922), Staphylococcus aureus subsp strain (ATCC 25923, methicillin-resistant), and Pseudomonas aeruginosa Migula strain (ATCC 27853, ampicillin-resistant) were used to test the antibacterial activity of the peptides. Bacteria were cultured in sterilized Mueller-Hinton (MH) culturing medium at 200 rpm and 37° C. for 8 hours.
The antibacterial activities were determined by the standard broth microdilution method of National Committee for Clinical Laboratory Standards with the LYM broth. The LYM broth contains 5.4 mM KCl, 5.6 mM Na2HPO4, 0.5 mM MgSO4, and 1.0 mM sodium citrate. In addition, 0.4 mg of ZnCl2, 2.0 mg of FeCl3. 6H2O, 0.1 mg of CuSO4. 5H2O, 0.1 mg of MnSO4.H2O, 0.1 mg of Na2B4O7.10H2O, 700 mg of amino acid mixtures without tryptophan (Clontech), and 20 mg of L-Tryptophan were added per liter of medium. A vitamin mixture (100×, Sigma) and glucose at final concentration of 2% were also added.
1 μl peptide solutions (ranging from 5000 μg/ml to 78 μg/ml in serial dilution) was prepared and mixed with 99 μl inoculum (5×10^5 CFU/ml) in polypropylene 96-well plate. The turbidity at OD 600 nm was measured by ELISA plate reader (Thermo Max, Molecular Devices, Sunnyvale, Calif.). The absorbance of culture medium and inoculum suspension without peptides were used as the negative and positive control, respectively. […]

human fibroblast (HFW) = test: MTT cytotoxicity to normal fibroblasts; assay type: cell-based; details: MTT assay
Experimental: Human lung cancer line PC9 and A549, oral squamous cell carcinoma cell line OECM-1 were cultured in RPMI medium supplemented with 10% fetal bovine serum and antibiotic. Human tongue carcinoma cell line SAS, oral cancer cell line C9, and human diploid fibroblast (HFW) were cultured in DMEM medium supplemented with 10% fetal bovine serum and antibiotic. Cells were cultured in a humidified incubator containing 5% CO2 at 37° C.
The MTT assay was employed to determine the in vitro cytotoxicity. All cancer cell lines were seeded in 96-well plate with concentration 5000 cells/100 μl/well and incubated for 24 hours. HFW was seeded with 8000 cells/100 μl/well.
After medium was removed, 100 μl fresh medium containing peptide (ranging from 50 μM to 3.13 μM, HFW was treated with 75 μM and 100 μM peptide additionally) was added to the wells. Following 3, 12 or 24 hour incubation, fresh medium with MTT (0.5 mg/ml) was replaced and incubated for 3 hours. After medium/MTT was removed, DMSO was added at 100 μl for dissolving the formazan crystal. Cell survival rate was calculated by measuring the absorbance at 540 nm using Multi-labeled Microplate Reader (VICTOR3). For cancer cells, medium mixed with H2O2 (aq) represented positive control (all cells died) while medium only represented negative control. For normal cells, medium only represented positive control (all cells lived) while medium mixed with H2O2 (aq) represented negative control (all cells died).
The cytotoxicities of S1 and its analogs on human lung cancer cells (i.e, PC9, PC9-G and A549), human oral cancer cells (i.e, C9, OECM-1, and SAS), and human fibroblast (HFW) were evaluated by MTT assay for 3, 12 and 24 hours.

PC9 cells = test: Cell live image (phase-contrast and immunofluorescence), PC9; assay type: cell-based, human; details: 12 μM, 5 minutes
Experimental: (§1) PC9 and HFW cells (˜10^5 cells) were pre-seeded in 6-cm polystyrene dishes for 24 hours. Cell nuclear is labeled by 4′,6-diamidino-2-phenylindole (DAPI) with a final concentration of 10 μg/ml. After 10 minutes of incubation, the cells were washed by PBS. FITC-K4R2Nal2S1-NH2 was added to the dishes with the final concentration of 12 μM. After incubation for 5, 10, 20 minutes or 1 hour at 37° C., the cells were washed with PBS. The images of FITC-K4R2Nal2S1-NH2 in PC9 cells and HFW cells were observed using the Inverted Fluorescent Microscope Zeiss/Observer.Z1.
(§2) To investigate the mode of actions of K4R2Nal2-S1 peptide on human cancer cell line (PC9) and human fibroblast (HFW), cells were treated with FITC-labeled K4R2-Nal2-S1. Nucleus was labeled with DAPI, and the blue signal was observed by UV exciting light. The fluorescence distribution of FITC-labeled K4R2-Nal2-S1 peptide on cell membrane was visualized by the inverted fluorescent microscope.

HFW cells = test: Cell live image (phase-contrast and immunofluorescence), HFW; assay type: cell-based, human; details: 12 μM, 5 minutes
Experimental: as §1, §2

caspase 3 in PC9 = test: Western blot for activated caspase 3, PC9; assay type: cell-based, human; details: 12 μM
Experimental: PC9 cells were seeded in 10-cm polystyrene dishes for 48 hours. About seventy percent full of cells were treated with 12 μM K4R2Nal2S1 for 10 minutes, 1 hour or 24 hours. RPMI medium without peptide treated for 24 hours which was used as negative control.
Cells were collected by 200 μl RIPA and protease inhibitor blended buffer. After sonication and centrifugation for 10 minutes, 13000 rpm at 4° C., supernatants (lysis of cell) were collected. Protein concentrations of cell extracts were determined by Bradford reagent. Equal amount of boiled lysates (total 50 μg) were separated on 10% acrylamide gel. The gel was transferred to PVDF membrane in electro-blot system, 300 V, […], and 80 minutes.
The membrane was incubated in blocking buffer (5% skim milk, TBST buffer) for 1 hour at room temperature and washed in TBST buffer twice. Blocked membrane was incubated with Caspase-3 antibody (EPITOMICS, clone ID: E83-77) overnight at 4° C., washed for five times, and then incubated in secondary antibody (HRP, GeneTex catalogue number: GTX21311-01) for 1 hour at room temperature. The signals were visualized by enhanced chemiluminescence (ECL) and recorded by a detected system (ImageQuant LAS 4000 mini).

caspase 3 in HFW cells = test: Western blot for activated caspase 3, HFW; assay type: cell-based, human
HaCaT cells = test: Cell migration assay (in vitro wound healing assay); assay type: cell-based; details: different concentrations of peptide; 12 and 24 h
Experimental: HaCaT cells (40,000) suspended in DMEM medium supplemented with 10% fetal bovine serum were seeded on each side of an ibidi culture insert (ibidi, Germany). Inserts were placed into 24-well plate. After incubated at 37° C. and 5% CO2 overnight, inserts were removed and 1 ml of serum-free DMEM medium supplemented with different concentrations of peptide was added. Medium without peptide and with 100 ng/ml EGF (epidermal growth factor) were negative and positive controls. At 0, 12 and 24 h, the images of injury area were observed using the Inverted Fluorescent Microscope Zeiss/Observer.Z1 (10×). Wound area was estimated by Adobe Photoshop. The repairing rate was calculated: repairing rate=(areat0−areat12,24)/areat0, wherein t represents time.

CC(=O)N[C@@H](CCCCN)C(=O)N[C@@H](CCCCN)C(=O)N[C@@H](CCCCN)C(=O)N[C@@H](CCCCN)C(=O)N[C@@H](CCCNC(=N)N)C(=O)N[C@@H](CCCNC(=N)N)C(=O)N[C@@H](Cc1ccc2ccccc2c1)C(=O)N[C@@H](Cc1ccc2ccccc2c1)C(=O)N[C@@H](CCCCN)C(=O)N[C@@H](CCCCN)C(=O)N[C@@H](Cc1c[nH]c2ccccc12)C(=O)N[C@@H](CCCNC(=N)N)C(=O)N[C@@H](CCCCN)C(=O)N[C@@H](Cc1c[nH]c2ccccc12)C(=O)N[C@@H](CC(C)C)C(=O)N[C@@H](C)C(=O)N[C@@H](CCCCN)C(=O)N[C@@H](CCCCN)C(N)=O [K4R2-Nal2-S1, Ac-KKKKRR-Nal-Nal-KKWRKWLAKK-NH2] (Ac-KKKKRR[2Nal][2Nal]KKWRKWLAKK-NH2)
effectiveness against bacterium ([1]; LYM broth condition): very effective | antimicrobial activities in high-salt conditions ([1]; addition of 100 or 200 mM NaCl): promising activities | degrees of cytotoxicities to HFW (rank order) (human fibroblast (HFW)): S1 peptide<K4R2-Nal2-S1 peptide<K6-Nal2-S1 peptide<Nal2-S1 peptide | cellular swelling (phase-contrast microscopy) (PC9 cells): induced cellular swelling | cellular swelling (phase-contrast microscopy) (HFW cells): not in HFW cells | caspase 3 activation (immunoblotting) (caspase 3 in PC9): activated caspase 3 | caspase 3 activation (immunoblotting) (caspase 3 in HFW cells): not in HFW cells | wound healing (repairing rate) compared to negative control (HaCaT cells): better effects of wound healing
